Assay results taken from patent publication US12492177B2, “RAR-α compounds for inflammatory disease and male contraception” (Orphagen Pharmaceuticals, Inc., priority 2019, dated 2025).

How the values were obtained:
Assay type in all cases: cell-based
[1] = target: T1, RARβ (Homo sapiens, UniProt P10826); assay: RARβ transcriptional assay, antagonist activity; conditions: in the presence of 0.5 nM TTNPB
T1 sequence (P10826 1-455): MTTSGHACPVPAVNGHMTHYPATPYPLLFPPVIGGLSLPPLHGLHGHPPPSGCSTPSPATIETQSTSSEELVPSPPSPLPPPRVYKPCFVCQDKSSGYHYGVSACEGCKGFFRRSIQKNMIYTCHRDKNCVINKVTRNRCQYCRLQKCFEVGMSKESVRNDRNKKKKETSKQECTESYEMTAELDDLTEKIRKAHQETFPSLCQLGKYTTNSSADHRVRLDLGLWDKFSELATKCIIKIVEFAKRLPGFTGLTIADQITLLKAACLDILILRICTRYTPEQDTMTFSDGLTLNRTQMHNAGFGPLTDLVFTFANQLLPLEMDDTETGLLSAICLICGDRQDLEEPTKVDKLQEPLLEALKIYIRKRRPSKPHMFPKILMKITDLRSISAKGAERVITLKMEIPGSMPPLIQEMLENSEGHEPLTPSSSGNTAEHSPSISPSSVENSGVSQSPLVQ
Description: (§1) Transcriptional assays for RARα, RARβ and RARγ, which measure the antagonist or agonist like activity of the compounds are described in WO 2017/201200 A1 (Thacher, Crowe, Tao and Raheja, Therapeutic compositions containing RAR-alpha antagonists) published on Nov. 23, 2017, which is also incorporated herein by reference. The results obtained in these assays are expressed as EC50 values when measuring agonist activity and IC50 values when measuring antagonist activity in the presence of 0.5 nM TTNPB, a retinoid agonist.

[2] = target: T2, RARγ (Homo sapiens, UniProt P13631); assay: RARγ transcriptional assay, agonist activity; conditions: agonist mode
T2 sequence (P13631 1-454): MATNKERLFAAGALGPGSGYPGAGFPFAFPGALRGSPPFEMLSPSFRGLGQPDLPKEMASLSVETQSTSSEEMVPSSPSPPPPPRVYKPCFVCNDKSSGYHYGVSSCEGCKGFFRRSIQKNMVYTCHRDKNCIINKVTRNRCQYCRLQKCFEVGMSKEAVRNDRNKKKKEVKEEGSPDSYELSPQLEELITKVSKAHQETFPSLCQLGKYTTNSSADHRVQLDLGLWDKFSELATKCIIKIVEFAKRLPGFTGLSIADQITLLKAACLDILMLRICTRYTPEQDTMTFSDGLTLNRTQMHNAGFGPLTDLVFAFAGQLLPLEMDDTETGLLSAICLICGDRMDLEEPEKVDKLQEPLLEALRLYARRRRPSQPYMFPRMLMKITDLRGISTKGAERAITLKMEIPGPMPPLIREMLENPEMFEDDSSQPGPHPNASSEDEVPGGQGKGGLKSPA
Description: as §1

[3] = target: T1, RARβ; assay: RARβ transcriptional assay, agonist activity; conditions: agonist mode
Description: as §1

[4] = target: T2, RARγ; assay: RARγ transcriptional assay, antagonist activity; conditions: in the presence of 0.5 nM TTNPB
Description: as §1

[5] = target: T3, RARα (Homo sapiens, UniProt P10276); assay: RARα transcriptional assay, agonist activity; conditions: agonist mode
T3 sequence (P10276 1-462): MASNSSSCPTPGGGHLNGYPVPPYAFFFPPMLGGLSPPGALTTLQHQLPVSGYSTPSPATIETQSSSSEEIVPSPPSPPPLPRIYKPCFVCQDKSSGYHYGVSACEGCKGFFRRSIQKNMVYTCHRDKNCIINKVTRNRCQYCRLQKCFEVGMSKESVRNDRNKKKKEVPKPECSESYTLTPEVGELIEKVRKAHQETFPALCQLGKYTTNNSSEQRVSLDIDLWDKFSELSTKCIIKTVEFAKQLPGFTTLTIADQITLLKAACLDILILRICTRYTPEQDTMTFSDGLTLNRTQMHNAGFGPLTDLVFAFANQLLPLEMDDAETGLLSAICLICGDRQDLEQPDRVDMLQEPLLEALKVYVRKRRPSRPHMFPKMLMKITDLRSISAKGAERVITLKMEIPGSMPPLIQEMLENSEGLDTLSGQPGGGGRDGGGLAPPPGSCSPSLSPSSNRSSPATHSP
Description: as §1

[6] = target: T3, RARα; assay: RARα transcriptional assay, antagonist activity; conditions: in the presence of 0.5 nM TTNPB
Description: as §1

| Compound | IC50 [1] | EC50 [2] | EC50 [3] | IC50 [4] | EC50 [5] | Antagonist Activity RARα Efficacy [6] | IC50 [6] |
| --- | --- | --- | --- | --- | --- | --- | --- |
| CC[C@H]1CC[C@H](C2=CC(C)(C)Oc3c(Br)cc(C(=O)Nc4ccc(C(=O)O)c(F)c4)cc32)CC1 [Compound 39] | 101 to 1000 nM | > 1000 nM | > 1000 nM | 101 to 1000 nM | > 1000 nM | † (†, RARα antagonist efficacy >85%) | < 1 nM |
| CC[C@H]1CC[C@@H](C2=CC(C)(C)Oc3c(Br)cc(C(=O)Nc4ccc(C(=O)O)c(F)c4)cc32)CC1 [Compound 40] | > 1000 nM | > 1000 nM | > 1000 nM | > 1000 nM | > 1000 nM | † (†, RARα antagonist efficacy >85%) | < 1 nM |
| CC1(C)C=C(C2CCOCC2)c2cc(C(=O)Nc3ccc(C(=O)O)c(F)c3)cc(Br)c2O1 [Compound 34] | > 1000 nM | 101 to 1000 nM | 101 to 1000 nM | > 1000 nM | 101 to 1000 nM | † (†, RARα antagonist efficacy >85%) | 11 to 100 nM |
| CC(C)C1=CC(C)(C)Oc2c(Br)cc(C(=O)Nc3ccc(C(=O)O)c(F)c3)cc21 [Compound 33] | > 1000 nM | 101 to 1000 nM | 11 to 100 nM | > 1000 nM | < 1 nM | – | > 1000 nM |

More lines, now with the values ahead:

| IC50 [1] | EC50 [2] | EC50 [3] | IC50 [4] | EC50 [5] | Antagonist Activity RARα Efficacy [6] | IC50 [6] | Compound |
| --- | --- | --- | --- | --- | --- | --- | --- |
| 11 to 100 nM | > 1000 nM | > 1000 nM | > 1000 nM | > 1000 nM | † (†, RARα antagonist efficacy >85%) | < 1 nM | CC1CCC(C2=CC(C)(C)Oc3c(Br)cc(C(=O)Nc4ccc(C(=O)O)c(F)c4)cc32)CC1 (stereo not drawn) [Compound 35] |
| > 1000 nM | > 1000 nM | 101 to 1000 nM | > 1000 nM | 11 to 100 nM | – | 1 to 10 nM | CC#CC1=CC(C)(C)Oc2c(Br)cc(C(=O)Nc3ccc(C(=O)O)c(F)c3)cc21 [Compound 37] |
| > 1000 nM | > 1000 nM | > 1000 nM | > 1000 nM | > 1000 nM | – | > 1000 nM | CN1CCC(C2=CC(C)(C)Oc3c(Br)cc(C(=O)Nc4ccc(C(=O)O)c(F)c4)cc32)CC1 [Compound 32] |
| 11 to 100 nM | > 1000 nM | > 1000 nM | 11 to 100 nM | > 1000 nM | † (†, RARα antagonist efficacy >85%) | < 1 nM | CC1(C)CCC(C2=CC(C)(C)Oc3c(Br)cc(C(=O)Nc4ccc(C(=O)O)c(F)c4)cc32)CC1 [Compound 38] |
| > 1000 nM | > 1000 nM | > 1000 nM | > 1000 nM | > 1000 nM | † (†, RARα antagonist efficacy >85%) | < 1 nM | CC1(C)C=C([C@H]2CC[C@@H](C)CC2)c2cc(C(=O)Nc3ccc(C(=O)O)c(F)c3)cc(Br)c2O1 [Compound 36] |
